# Laboratory results from ChEMBL document CHEMBL4020769, “Gemcitabine anti-proliferative activity significantly enhanced upon conjugation with cell-penetrating peptides” (Bioorg Med Chem Lett, 2017).
# Peptide text beside a SMILES is read from it. * marks the point of attachment. X1 = O=C(CCS*)Nc1ccn([C@@H]2O[C@H](CO)[C@@H](O)C2(F)F)c(=O)n1
# Assays:
# [1] = system: MKN-28; assay: Antiproliferative activity against human MKN28 cells after 48 hrs by sulforhodamine B assay; format: functional, cell-based; details: MKN-28, 48 h
# [2] = system: HT-29; assay: Antiproliferative activity against human HT-29 cells after 48 hrs by sulforhodamine B assay; format: functional, cell-based; details: for IC50: HT-29, 48 h
# [3] = system: Caco-2; assay: Antiproliferative activity against human Caco2 cells after 48 hrs by sulforhodamine B assay; format: functional, cell-based; details: Caco-2, 48 h
# [4] = system: HT-29; assay: Growth inhibition of human HT-29 cells after 48 hrs by sulforhodamine B assay relative to control; format: functional
# [5] = Prodrug conversion in pH 7.4 phosphate buffered saline assessed as gemcitabine release by HPLC method
# [6] = Half life in pH 7.4 phosphate buffered saline by HPLC method; format: physicochemical
Compound,IC50 [1] [µM],IC50 [2] [µM],IC50 [3] [µM],half-life [6] [h],growth inhibition (GI) [4] [%],Drug metabolism [5],Activity [2]
CC[C@H](C)[C@H](NC(=O)[C@H](CCCCN)NC(=O)[C@@H](NC(=O)[C@H](CCC(N)=O)NC(=O)[C@H](CCCNC(=N)N)NC(=O)[C@@H](N)CSSCCC(=O)Nc1ccn([C@@H]2O[C@H](CO)[C@@H](O)C2(F)F)c(=O)n1)[C@@H](C)CC)C(=O)N[C@@H](Cc1c[nH]c2ccccc12)C(=O)N[C@@H](Cc1ccccc1)C(=O)N[C@@H](CCC(N)=O)C(=O)N[C@@H](CC(N)=O)C(=O)N[C@@H](CCCNC(=N)N)C(=O)N[C@@H](CCCNC(=N)N)C(=O)N[C@@H](CCSC)C(=O)N[C@@H](CCCCN)C(=O)N[C@@H](Cc1c[nH]c2ccccc12)C(=O)N[C@@H](CCCCN)C(=O)N[C@@H](CCCCN)C(=O)O,47,47.3,67.1,230,,Metabolite detected,Dose-dependent effect
CC[C@H](C)[C@H](NC(=O)[C@H](CCCNC(=N)N)NC(=O)[C@H](CCCNC(=N)N)NC(=O)[C@H](CCCNC(=N)N)NC(=O)[C@H](CC(C)C)NC(=O)[C@@H](NC(=O)[C@@H](NC(=O)[C@H](CC(C)C)NC(=O)[C@H](CC(C)C)NC(=O)[C@@H](N)CSSCCC(=O)Nc1ccn([C@@H]2O[C@H](CO)[C@@H](O)C2(F)F)c(=O)n1)[C@@H](C)CC)[C@@H](C)CC)C(=O)N[C@@H](CCCNC(=N)N)C(=O)N[C@@H](CCCCN)C(=O)N[C@@H](CCC(N)=O)C(=O)N[C@@H](C)C(=O)N[C@@H](Cc1cnc[nH]1)C(=O)N[C@@H](C)C(=O)N[C@@H](Cc1cnc[nH]1)C(=O)N[C@@H](CO)C(=O)N[C@@H](CCCCN)C(=O)O (H-C(X1)LLIILRRRIRKQAHAHSK-OH),20.7,45.2,> 100,42,,Metabolite detected,Dose-dependent effect

# Now from value to compound, other results behind:
IC50 [1] [µM],IC50 [2] [µM],IC50 [3] [µM],half-life [6] [h],Compound,growth inhibition (GI) [4] [%],Drug metabolism [5],Activity [2]
> 100,> 100,> 100,,H-CLLIILRRRIRKQAHAHSK-OH,,,
> 100,> 100,> 100,,Nc1ccn([C@@H]2O[C@H](CO)[C@@H](O)C2(F)F)c(=O)n1 [GEMCITABINE],30,,
> 100,> 100,> 100,,CC[C@H](C)[C@H](NC(=O)[C@H](CCCCN)NC(=O)[C@@H](NC(=O)[C@H](CCC(N)=O)NC(=O)[C@H](CCCNC(=N)N)NC(=O)[C@@H](N)CS)[C@@H](C)CC)C(=O)N[C@@H](Cc1c[nH]c2ccccc12)C(=O)N[C@@H](Cc1ccccc1)C(=O)N[C@@H](CCC(N)=O)C(=O)N[C@@H](CC(N)=O)C(=O)N[C@@H](CCCNC(=N)N)C(=O)N[C@@H](CCCNC(=N)N)C(=O)N[C@@H](CCSC)C(=O)N[C@@H](CCCCN)C(=O)N[C@@H](Cc1c[nH]c2ccccc12)C(=O)N[C@@H](CCCCN)C(=O)N[C@@H](CCCCN)C(=O)O,,,
